The record followed here is patent US20210322450A1, “APPLICATION OF COMPOSITION CONTAINING NICOTINAMIDE MONONUCLEOTIDE IN ANTI-AGING DRUGS/HEALTHCARE PRODUCTS” (HOBOOMLIFE BIO-TECHNOLOGY (SHENZHEN) CO., LTD., priority 2019, published 2021).

The test has as its system ex-vivo carotid artery segment of the mouse. The test can be described thus: Ex-vivo carotid artery segment incubated with TEMPOL in vitro (EDD). Also noted: species or system C57BL/6 male mice. As for the experimental part: After 8 weeks, the mice were anesthetized with isoflurane and euthanized by bloodletting through cardiac puncture. The carotid artery was excised, the […] was inserted into the tip of a glass micropipette, and fixed with a nylon suture in a myograph chamber (DMTInc., Ann Arbor, Mich., USA) containing a buffered saline solution.
The artery was pressurized to 50 mm Hg at 37° C. and equilibrated for 45 minutes before the experiment. After sub-polar contraction was performed using phenylephrine (2 μM), the diameter of the arterial lumen was increased to the degree of response of acetylcholine (Ach: 1×10^−91×10^−4 M), and the arterial tube treated with acetylcholine was used to determine […] dilation by vasodilation in response to NO donor sodium nitroprusside (SNP: 1×10^−101×10^−4 M). Calculated according to the following formula, the vasodilation response was recorded as the actual diameter due to the difference in the maximum carotid artery diameter of the young and old animals, expressed as a percentage of the maximum reaction. The formula is as follows:
Dilation (%)=(Ds−Db)/(Dm−Db)×100%;
wherein, Dm is the maximum diameter of the lumen under a pressure of 50 mm Hg pressure; Db is the steady-state lumen diameter after pre-contraction before the first addition of the drug; Ds is the steady-state lumen diameter recorded after the drug is added.

Each structure is given as a SMILES string.

Regarding `CC1(C)CC(O)CC(C)(C)N1[O]` [TEMPOL, 4-hydroxy-2,2,6,6-tetramethylpiperidin-1-yloxy], the “EDD of the carotid artery after incubation in vitro” value by setting is: (old control group) “restored the EDD”; (other groups (young control, young and old experimental groups)) “no effect”.
